Laboratory results as given in patent publication US10952433B2, “Solutions for enhancing the effectiveness of insecticides and fungicides on living plants and related methods” (priority 2015, dated 2021).
Like-named read-outs stand apart in the source and are kept apart here.

Tests used:
[1] = system: lepidopteran larvae: cabbage loopers (Trichoplusia ni) and beet armyworms (Spodoptera exigua); format: in vivo; details: plants
Method in brief: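 Romaine lettuce plants 2-3 inches tall were sprayed with 10 mL of insecticide (ppm) with buffer, amine oxide or buffered amine oxide at 200:1, then infested with 15 T. ni and 15 S. exigua larvae (5th-6th instar) per container. Leaf surface damage scored visually in 5% increments after 24 h.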

[2] = system: lepidopteran larvae: cabbage loopers (Trichoplusia ni) and beet armyworms (Spodoptera exigua); format: in vivo; details: leaf discs
Method in brief: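 Romaine lettuce leaf discs (⅝ inch) dipped about one second in treatment solution and infested with four cabbage loopers and four beet armyworms (3rd-4th instar) per container. Held dark at 15 °C, 80% RH; percent disc-area damage scored visually in 5% increments at 24, 48 and 72 h.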

[3] = insecticide + CO3 buffer 200:1, no amine oxide, PPM: Chlorantranilopril 60, Acephate 70, Methoxyfenozide 100, Spinosad 30, Permethrin 10, Indoxacarb 50
[4] = insecticide + PO4 buffer 200:1, no amine oxide, PPM: Chlorantranilopril 60, Acephate 70, Methoxyfenozide 100, Spinosad 30, Permethrin 10, Indoxacarb 50
[5] = insecticide + amine oxide 12, no buffer, 200:1, PPM: Chlorantranilopril 60, Acephate 70, Methoxyfenozide 100, Spinosad 30, Permethrin 10, Indoxacarb 50
[6] = insecticide + amine oxide 1218, no buffer, 200:1, PPM: Chlorantranilopril 60, Acephate 70, Methoxyfenozide 100, Spinosad 30, Permethrin 10, Indoxacarb 50
[7] = insecticide + buffered amine oxide system CO3, 12, 200:1, PPM: Chlorantranilopril 60, Acephate 70, Methoxyfenozide 100, Spinosad 30, Permethrin 10, Indoxacarb 50
[8] = insecticide + buffered amine oxide system CO3, 1218, 200:1, PPM: Chlorantranilopril 60, Acephate 70, Methoxyfenozide 100, Spinosad 30, Permethrin 10, Indoxacarb 50
[9] = insecticide + buffered amine oxide system PO4, 12, 200:1, PPM: Chlorantranilopril 60, Acephate 70, Methoxyfenozide 100, Spinosad 30, Permethrin 10, Indoxacarb 50
[10] = insecticide + buffered amine oxide system PO4, 1218, 200:1, PPM: Chlorantranilopril 60, Acephate 70, Methoxyfenozide 100, Spinosad 30, Permethrin 10, Indoxacarb 50
[11] = insecticide alone, highest, PPM: Chlorantranilopril 120, Acephate 140, Methoxyfenozide 200, Spinosad 60, Permethrin 20, Indoxacarb 100
[12] = insecticide alone, increased, PPM: Chlorantranilopril 90, Acephate 105, Methoxyfenozide 150, Spinosad 45, Permethrin 15, Indoxacarb 75
[13] = insecticide alone, PPM: Chlorantranilopril 60, Acephate 70, Methoxyfenozide 100, Spinosad 30, Permethrin 10, Indoxacarb 50

How did the “Percent Lepidopteran Damage to Romaine Lettuce 24 hr” value [1, 3] turn out when COc1cccc(C(=O)NN(C(=O)c2cc(C)cc(C)c2)C(C)(C)C)c1C [Methoxyfenozide] was run?
Its value is 13.5%.

And the “Percent Lepidopteran Damage to Romaine Lettuce 24 hr” value [1, 4]?
The value was 22.0%.

What about the “Percent Lepidopteran Damage to Romaine Lettuce 24 hr” value [1, 5] of the same molecule?
The value was 28.0%.

And the “Percent Lepidopteran Damage to Romaine Lettuce 24 hr” value [1, 6]?
The value was 13.0%.

What about the “Percent Lepidopteran Damage to Romaine Lettuce 24 hr” value [1, 7] of the same molecule?
The value was 8.0%.

What about the “Percent Lepidopteran Damage to Romaine Lettuce 24 hr” value [1, 8] of the same molecule?
Its value is 9.0%.

What about the “Percent Lepidopteran Damage to Romaine Lettuce 24 hr” value [1, 9] of the same molecule?
The value was 7.5%.

And the “Percent Lepidopteran Damage to Romaine Lettuce 24 hr” value [1, 10]?
The value was 4.5%.

And the “Percent Lepidopteran Damage to Romaine Lettuce 24 hr” value [1, 11]?
Its value is 23.5%.

And the “Percent Lepidopteran Damage to Romaine Lettuce 24 hr” value [1, 12]?
Its value is 43.0%.

What about the “Percent Lepidopteran Damage to Romaine Lettuce 24 hr” value [1, 13] of the same molecule?
The value was 29.5%.

What about the “Percent Lepidopteran Damage to Romaine Lettuce 24 hr” value [2, 3] of the same molecule?
Its value is 96.0%.

What about the “Percent Lepidopteran Damage to Romaine Lettuce 24 hr” value [2, 4] of the same molecule?
The value was 100.0%.

And the “Percent Lepidopteran Damage to Romaine Lettuce 24 hr” value [2, 5]?
Its value is 79.5%.

What about the “Percent Lepidopteran Damage to Romaine Lettuce 24 hr” value [2, 6] of the same molecule?
The value was 72.0%.

And the “Percent Lepidopteran Damage to Romaine Lettuce 24 hr” value [2, 7]?
Its value is 42.5%.

And the “Percent Lepidopteran Damage to Romaine Lettuce 24 hr” value [2, 8]?
The value was 43.0%.

And the “Percent Lepidopteran Damage to Romaine Lettuce 24 hr” value [2, 9]?
Its value is 54.5%.

What about the “Percent Lepidopteran Damage to Romaine Lettuce 24 hr” value [2, 10] of the same molecule?
Its value is 85.0%.

And the “Percent Lepidopteran Damage to Romaine Lettuce 24 hr” value [2, 11]?
Its value is 100.0%.

And the “Percent Lepidopteran Damage to Romaine Lettuce 24 hr” value [2, 12]?
Its value is 100.0%.

What about the “Percent Lepidopteran Damage to Romaine Lettuce 24 hr” value [2, 13] of the same molecule?
The value was 84.0%.

And the “Percent Lepidopteran Damage to Romaine Lettuce 48 hr” value [2, 3]?
Its value is 99.5%.

What about the “Percent Lepidopteran Damage to Romaine Lettuce 48 hr” value [2, 4] of the same molecule?
Its value is 100.0%.

What about the “Percent Lepidopteran Damage to Romaine Lettuce 48 hr” value [2, 5] of the same molecule?
Its value is 82.5%.

And the “Percent Lepidopteran Damage to Romaine Lettuce 48 hr” value [2, 6]?
Its value is 80.5%.

And the “Percent Lepidopteran Damage to Romaine Lettuce 48 hr” value [2, 7]?
Its value is 51.5%.

What about the “Percent Lepidopteran Damage to Romaine Lettuce 48 hr” value [2, 8] of the same molecule?
The value was 67.0%.

What about the “Percent Lepidopteran Damage to Romaine Lettuce 48 hr” value [2, 9] of the same molecule?
The value was 67.5%.

What about the “Percent Lepidopteran Damage to Romaine Lettuce 48 hr” value [2, 10] of the same molecule?
The value was 87.0%.

And the “Percent Lepidopteran Damage to Romaine Lettuce 48 hr” value [2, 11]?
Its value is 100.0%.

What about the “Percent Lepidopteran Damage to Romaine Lettuce 48 hr” value [2, 12] of the same molecule?
The value was 100.0%.

What about the “Percent Lepidopteran Damage to Romaine Lettuce 48 hr” value [2, 13] of the same molecule?
Its value is 94.0%.

And the “Percent Lepidopteran Damage to Romaine Lettuce 72 hr” value [2, 3]?
Its value is 100.0%.

What about the “Percent Lepidopteran Damage to Romaine Lettuce 72 hr” value [2, 4] of the same molecule?
The value was 100.0%.

And the “Percent Lepidopteran Damage to Romaine Lettuce 72 hr” value [2, 5]?
The value was 87.0%.

And the “Percent Lepidopteran Damage to Romaine Lettuce 72 hr” value [2, 6]?
Its value is 87.5%.

What about the “Percent Lepidopteran Damage to Romaine Lettuce 72 hr” value [2, 7] of the same molecule?
Its value is 57.0%.

What about the “Percent Lepidopteran Damage to Romaine Lettuce 72 hr” value [2, 8] of the same molecule?
The value was 73.5%.

And the “Percent Lepidopteran Damage to Romaine Lettuce 72 hr” value [2, 9]?
The value was 73.0%.

And the “Percent Lepidopteran Damage to Romaine Lettuce 72 hr” value [2, 10]?
Its value is 88.0%.

And the “Percent Lepidopteran Damage to Romaine Lettuce 72 hr” value [2, 11]?
The value was 100.0%.

And the “Percent Lepidopteran Damage to Romaine Lettuce 72 hr” value [2, 12]?
The value was 100.0%.

What about the “Percent Lepidopteran Damage to Romaine Lettuce 72 hr” value [2, 13] of the same molecule?
Its value is 96.0%.
